Converted amounts (≈) assume the structure as drawn. “And” between values parts separate entries of the source, which are not always exact repeats. Equal values may be shown once. Marks after values point to notes of the source that are not given here.
What was measured:
[1] = Rat lung tissue concentration after 14 days of inhaled dosing; format: in vivo, rats (Han Wistar); conditions: for Lung concentration: lungs ~22 hours after final dose (Day 15)
Procedure: Portions of rat lung tissue were homogenized in methanol:water (50:50; 15 mL for 1 g tissue). PC945 concentrations in tissue homogenates were analyzed using LC‐MS/MS. A control rat lung sample (B&K Universal Ltd, Hull, UK) was used as standards and quality control.

CYP3A4/5 = test: CYP inhibition in pooled human liver microsomes; format: in vitro ADME
[2] = system: CYP1A2, 2B6, 2C8, 2C9, 2C19, 2D6; test: CYP inhibition in pooled human liver microsomes, other isoforms; format: in vitro ADME
Procedure: PC945 and posaconazole (Sigma‐Aldrich, UK) were added to the pooled human liver microsomal samples (Pharmaron Rushden, UK) at concentrations of 0, 0.03, 0.1, 0.3, 1, 3, and 5 μmol/L. The mixtures were preincubated at 37°C for 0 or 30 minutes before the addition of selective CYP substrates. Microsomal reactions were terminated by adding 100 μL of cold (4°C) methanol containing appropriate internal standard. Aliquots (150 μL) of each sample were centrifuged and the supernatant was used for substrate analysis by ultra‐performance liquid chromatography with tandem mass spectrometry (UPLC‐MS/MS) on the day of incubations.
Change in substrate concentration was measured to determine the extent of CYP‐isoform inhibition. The 30‐minute preincubations were performed to determine whether there was time‐dependent inhibition of any CYP isoform (CYP1A2, 2B6, 2C8, 2C9, 2C19, 2D6, and 3A4/5). Untreated control contained only solvent, dimethyl sulfoxide (≤0.5% [v/v]). Positive control contained a chemical inhibitor selective for each CYP enzyme in the […].

[3] = Clinical pharmacokinetics, single ascending inhaled dose in healthy subjects (Cohort 1); format: in vivo, human; conditions: for AUC0–24h / C max / AUC0–∞ / t ½: geometric mean (CV%); for t max: median (range), postend of inhalation
Procedure: This PC945 first‐in‐human clinical trial (ClinicalTrials.gov Identifier: NCT02715570) was a two‐part randomized, placebo‐controlled study to assess the safety and tolerability of PC945 in both healthy subjects and subjects with mild asthma, conducted at Parexel Early Phase Clinical Unit (Harrow, UK). The study was considered single‐blind as the appearance of active and placebo doses were different, however, it was conducted in a double‐blind manner (employing separate dosing and assessment teams).
(§1) Part one consisted of a single dose escalation study (Cohort 1) and a repeat dose study (Cohort 2) of inhaled PC945 in healthy subjects. Part two comprised a single dose study of inhaled PC945 in subjects with mild asthma (Cohort 3). The doses selected were predicted to achieve target lung concentrations above the IC90/MIC90 for A. fumigatus (based on data from a range of in vitro and in vivo systems) throughout a 24‐hour period and with a suitable safety margin based on animal toxicology data.
In Cohort 1, 11 healthy subjects (three males and eight females; mean age: 48.5 years, mean weight: 65.32 kg, mean body mass index [BMI]: 23.62 kg/m^2), attended the single ascending dose study. Eight healthy subjects started the study in which two subjects were randomized to each of the four ascending dose treatment sequences (Table 1); two subjects withdrew due to adverse events unrelated to study medication and both were replaced. One of the replacement subjects subsequently withdrew from the study for personal reasons and was replaced by another subject (Figure 1). Overall, six subjects each received three of four doses of PC945 (0.5, 2, 5, and 10 mg) and one dose of placebo. These doses were administered with a minimum of 13 days interval to allow for washout.
(§2) Serial blood samples were collected to determine plasma PC945 concentrations. For the single dose study in healthy subjects and in subjects with mild asthma, blood samples were collected predose and at 0.25, 0.5, 1, 2, 4, 6, 8, 24, 30, and 48 hours postend of inhalation and at the follow‐up visit. For the repeat dose study, blood samples were collected (a) predose and at 0.25, 0.5, 1, 2, 4, 6, 8, 10, 12, and 24 hours postend of inhalation on Days 1 and 7, and 30 and 48 hours on Day 7; (b) predose on Days 5 and 6; (c) at the follow‐up visit.

[4] = Clinical pharmacokinetics, repeat inhaled dose in healthy subjects (Cohort 2); format: in vivo, human
Source text: as §1
Nine healthy subjects (four males and five females; mean age: 33.2 years, mean weight: 66.5 kg, mean BMI: 23.53 kg/m^2) whose forced expiratory volume over 1 second (FEV1) and forced vital capacity (FVC) were ≥80% of predicted values with an FEV1/FVC ratio >0.7, received once daily doses of PC945 5 mg or placebo for 7 days (Cohort 2, PC945:placebo = 2:1).
as §2
Attainment of steady state was assessed by visual inspection of the predose plots during the 7‐day treatment period in human subjects.

[5] = Clinical pharmacokinetics, single inhaled dose in subjects with mild asthma (Cohort 3); format: in vivo, human; conditions: single inhaled 5 mg
Source text: as §1
In Cohort 3, nine subjects with mild asthma (six males and three females; mean age: 37.7 years, mean weight: 82.70 kg, mean BMI: 26.48 kg/m^2) received a single dose of PC945 5 mg or placebo (PC945:placebo = 2:1).
as §2

A. fumigatus infection = system: A. fumigatus infection; design: method as in PMID 31263150; conditions: in vitro human alveolus bilayer model; cited from earlier work
[6] = substrate midazolam, 30‐minute preincubation
[7] = healthy subjects, 5 mg once daily, Day 1, geometric mean (CV%)
[8] = healthy subjects, 5 mg once daily, Day 7, geometric mean (CV%)

## Cc1cc(N2CCN(c3ccc(C(=O)Nc4ccc(F)cc4)cc3)CC2)ccc1OC[C@@H]1CO[C@@](Cn2cncn2)(c2ccc(F)cc2F)C1 [PC945]
[1]; female rats, 2.0 mg/kg/day
  Ratio lung tissue concentration (Day 15)/plasma C max (Day 14): 2610
[1]; female rats, 2.0 mg/kg/day for 14 days
  Lung concentration: 50 100 ng/mL
[1]; female rats, 7.1 mg/kg/day
  Ratio lung tissue concentration (Day 15)/plasma C max (Day 14): 2740
[1]; female rats, 7.1 mg/kg/day for 14 days
  Lung concentration: 138 000 ng/mL
[1]; female rats, 16.6 mg/kg/day
  Ratio lung tissue concentration (Day 15)/plasma C max (Day 14): 2340
[1]; female rats, 16.6 mg/kg/day for 14 days
  Lung concentration: 216 000 ng/mL
[1]; male rats
  Mean lung:plasma ratio: ~ 4300 fold
[1]; male rats, 2.0 mg/kg/day
  Ratio lung tissue concentration (Day 15)/plasma C max (Day 14): 3450
[1]; male rats, 2.0 mg/kg/day for 14 days
  Lung concentration: 42 400 ng/mL
[1]; male rats, 7.1 mg/kg/day
  Ratio lung tissue concentration (Day 15)/plasma C max (Day 14): 5020
[1]; male rats, 7.1 mg/kg/day for 14 days
  Lung concentration: 119 000 ng/mL
[1]; male rats, 16.6 mg/kg/day
  Ratio lung tissue concentration (Day 15)/plasma C max (Day 14): 4280
[1]; male rats, 16.6 mg/kg/day for 14 days
  Lung concentration: 329 000 ng/mL
[1]; rats, all dose levels, after 14‐day inhaled dosing
  Lung concentration relative to plasma: > 2000 fold
CYP3A4/5
  Shift in potency for CYP3A4/5 following preincubation: fivefold
CYP3A4/5; microsomes
  IC50, CYP3A4/5: 0.168 µg/mL (≈ 0.246 µM)
CYP3A4/5; [6]
  IC50: 17 nM
  IC50, CYP3A4/5: 0.0116 µg/mL (≈ 0.017 µM)
CYP3A4/5; substrate midazolam, without preincubation, pooled human liver microsomes
  IC50: 85 nM
[2]; 30‐minute preincubation
  Time‐dependent effect on other CYP isoforms: no time‐dependent effect
[2]; up to 5 μmol/L
  Cytochrome P450 inhibitory interaction, isoforms other than CYP3A4/5: only cytochrome P450 inhibitory interaction observed for PC945 was that on CYP3A4/5 substrates
[3]; single doses 0.5 to 10 mg, 90% CI 1.54, 2.02
  Increase in C max for a doubling in dose: 1.77 fold
[3]; single doses 0.5 to 10 mg, 90% CI 1.64, 2.15
  Increase in AUC0–24h for a doubling in dose: 1.88 fold
[3]; single inhaled 0.5 mg
  AUC0–24h: 726 (73.4) ^a pg•h/mL
  C max: 54.7 (64.8) ^a pg/mL
  t max: 1 h and 1.10 (0.250‐2.10) ^a h
[3]; single inhaled 0.5 mg, n = 2
  AUC0–∞: 1480 (7.41) ^b pg•h/mL
[3]; single inhaled 0.5 mg, n = 2, considered unreliable
  t ½: 36.9 (24.1) ^b h
[3]; single inhaled 2 mg
  AUC0–24h: 1990 (102) pg•h/mL
  C max: 128 (107) pg/mL
  t max: 4 h and 4.11 (2.09‐8.11) h
[3]; single inhaled 2 mg, n = 3
  AUC0–∞: 3140 (175) ^c pg•h/mL
[3]; single inhaled 2 mg, n = 3, considered unreliable
  t ½: 27.9 (58.4) ^c h
[3]; single inhaled 5 mg
  AUC0–24h: 5440 (48.0) pg•h/mL
  C max: 322 (51.1) pg/mL
  t max: 5 h and 5.10 (2.08‐8.12) h
[3]; single inhaled 5 mg, n = 4, considered unreliable
  t ½: 37.3 (36.4) ^d h
[3]; single inhaled 10 mg
  C max: 619 (39.1) pg/mL
  t max: 2 h and 2.13 (0.330‐6.15) h
[3]; single inhaled 10 mg, considered unreliable
  t ½: 110 (16.5) h
[4]; [7]
  AUC0–24h: 6510 (60.0) pg*h/mL
  C max: 462 (68.0) pg/mL
[4]; healthy subjects, 5 mg once daily, Day 1, median (range)
  t max: 2 h and 2.10 (2.08‐4.08) h
[4]; healthy subjects, 5 mg once daily, Day 7
  time of C max postend of inhalation: 45 min
[4]; [8]
  C max: 951 (58.7) pg/mL
  t ½: 132 (22.7) h
[4]; healthy subjects, 5 mg once daily, Day 7, median (range)
  t max: 0.745 (0.240‐10.1) h
[4]; human, inhaled doses, read-out: C max values obtained with inhaled doses
  Cmax: < 2 nM
[4]; once daily dosing, human
  Predicted time to steady state: approximately 5 weeks
[5]
  AUC0–24h: 4.95 ng·h/mL
  median t max: 4 h
[5]; geometric mean
  C max: 0.335 ng/mL
A. fumigatus infection
  Effect on A. fumigatus infection: inhibit A. fumigatus infection
